Experimental data as given in patent US7544691B2, “Guanidine derivatives” (Actelion Pharmaceuticals, Ltd., priority 2004, dated 2009).

Molecular target: T1, NPFF1 receptor (Homo sapiens, UniProt Q9GZQ6)
T1 construct: expressed in transfected cells; host or cells: Chinese Hamster Ovary cells, CHOSP10 (membranes)
Experiment: NPFF receptor binding test (displacement of 125I-Tyr1-NPFF from CHOSP10 cell membranes)
Settings: membranes of CHOSP10 cells producing NPFF1 receptor; 0.2 nM 125I-Tyr1-NPFF; 90 minutes at room temperature
Experimental: Compounds of Formula I were examined in the following test for their affinity to the NPFF receptors: Hamster cells suitable for neuropeptide FF receptor-binding studies (Chinese Hamster Ovary cells, CHOSP10) which in each case produce the NPFF1 or NPFF2 receptor, were multiplied in standard cell-culture conditions. The cell-culture medium was sucked out and 5 ml of buffer A (5 mM Tris pH=7.4, 1 mM MgCl2) added per 17 cm Petri dish. The cells were scraped off the cell-culture plate and transferred into a 50 ml Falcon vessel. The cells were then centrifuged for 5 minutes at 450 g, resuspended in buffer A once again and mixed for 30 seconds on a Polytron Vortexer. After centrifugation at 30,000 g for 20 minutes the supernatant was discarded and the membrane pellet taken up in 500 μl buffer C (75 mM Tris pH=7.4, 25 mM MgCl2, 250 mM sucrose, 0.1 mM PMSF, 0.1 mM phenanthroline). The membrane-buffer mixture was then divided into aliquots and deep-frozen. The protein content of an aliquot was determined by the Lowry method. The binding test was carried out in a final volume of 250 μl. 100 μl membrane-buffer mixture corresponding to 35 μg protein content was mixed with 95 μl binding buffer (50 mM Tris pH 7.4, 60 mM NaCl, 0.1% protease-free BSA, 0.01% NaN3). After addition of 5 μl of a concentration of test substance per measurement point in each case, 0.2 nM ^125I-Tyr1-NPFF (NEN, NEX381) per measurement point was added in 50 μl. After 90 minutes' incubation at room temperature the samples were sucked out through a GF/C filter (Millipore ([…]60)) and the filter was washed with ice cold binding buffer with 3 times 300 μl (Packard Filtermate). After addition of 55 μl Microscint 40 (Packard 6013641) scintillation fluid the measurement points were quantified in the gamma counter (Packard, Top Count NXT). Non-specific binding was ascertained in the presence of 1 μM unmarked neuropeptide FF. Specific binding is defined as the difference between total and non-specific binding. IC50 values are defined as that concentration of the antagonist which displaces 50% of the ^125I-marked neuropeptide FF. This concentration is ascertained by linear regression analysis after logit/log-transformation of the binding values.

T1 sequence (Q9GZQ6 whole entry): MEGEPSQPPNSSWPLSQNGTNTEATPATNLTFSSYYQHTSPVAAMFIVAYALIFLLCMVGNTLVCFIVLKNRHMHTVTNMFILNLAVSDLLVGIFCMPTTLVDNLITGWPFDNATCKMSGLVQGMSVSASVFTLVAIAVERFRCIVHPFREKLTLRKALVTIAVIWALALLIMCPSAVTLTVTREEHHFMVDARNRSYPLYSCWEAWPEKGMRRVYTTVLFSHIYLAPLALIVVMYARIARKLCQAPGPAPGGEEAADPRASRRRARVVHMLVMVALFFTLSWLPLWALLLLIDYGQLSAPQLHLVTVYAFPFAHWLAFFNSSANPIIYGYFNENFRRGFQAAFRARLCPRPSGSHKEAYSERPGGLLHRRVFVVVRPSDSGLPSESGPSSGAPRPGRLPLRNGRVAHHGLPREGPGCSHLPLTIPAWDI

| Compound | IC50 |
| --- | --- |
| Cc1nc(NC(=N)N)nc2c1CC(C)CC2 (racemic) [N-(4,6-dimethyl-5,6,7,8-tetrahydro-quinazolin-2-yl)-guanidine] | 48 nM |
| Cc1nc(NC(=N)N)nc2c1CCCCCC2 (racemic) [N-(4-methyl-5,6,7,8,9,10-hexahydro-cyclooctapyrimidin-2-yl)-guanidine] | 60 nM |
| Cc1nc(NC(=N)N)nc2c1CCCCC2 (racemic) [N-(4-methyl-6,7,8,9-tetrahydro-5H-cycloheptapyrimidin-2-yl)-guanidine] | 54 nM |
| Cc1nc(NC(=N)N)nc2c1CC(c1ccccc1)CC2 (racemic) [N-(4-methyl-6-phenyl-5,6,7,8-tetrahydro-quinazolin-2-yl)-guanidine] | 16 nM |
| Cc1nc(NC(=N)N)nc2c1CCCC2c1ccccc1 (racemic) [N-(4-methyl-8-phenyl-5,6,7,8-tetrahydro-quinazolin-2-yl)-guanidine] | 16 nM |
| Cc1nc(NC(=N)N)nc2c1CC(C(C)(C)C)CC2 (racemic) [N-(6-tert-butyl-4-methyl-5,6,7,8-tetrahydro-quinazolin-2-yl)-guanidine] | 8 nM |
| CCC(C)C1CCCc2c(C)nc(NC(=N)N)nc21 (racemic) [N-(8-sec-butyl-4-methyl-5,6,7,8-tetrahydro-quinazolin-2-yl)-guanidine] | 73 nM |
| Cc1nc(NC(=N)N)nc2c1CCCC2C(C)(C)C (racemic) [N-(8-tert-butyl-4-methyl-5,6,7,8-tetrahydro-quinazolin-2-yl)-guanidine] | 39 nM |
| CCC(C)(C)C1CCc2nc(NC(=N)N)nc(C)c2C1 (racemic) [N-[6-(1,1-dimethyl-propyl)-4-methyl-5,6,7,8-tetrahydro-quinazolin-2-yl]-guanidine] | 19 nM |

Compounds with a lower IC50, results first:

| IC50 | Compound |
| --- | --- |
| 7 nM | Cc1nc(NC(=N)N)nc2c1C(C)CCC2 (racemic) [N-(4,5-dimethyl-5,6,7,8-tetrahydro-quinazolin-2-yl)-guanidine] |
| 4 nM | Cc1nc(NC(=N)N)nc2c1CCCC2 (racemic) [N-(4-methyl-5,6,7,8-tetrahydro-quinazolin-2-yl)-guanidine] |
| 1 nM | CCCC1CCc2nc(NC(=N)N)nc(C)c2C1 (racemic) [N-(4-methyl-6-propyl-5,6,7,8-tetrahydro-quinazolin-2-yl)-guanidine] |
| 2 nM | Cc1nc(NC(=N)N)nc2c1CC(C(C)C)CC2 (racemic) [N-(6-isopropyl-4-methyl-5,6,7,8-tetrahydro-quinazolin-2-yl)-guanidine] |
